One compound from publication PMC12741935 (Alzheimer's & Dementia, 2025) can be followed below.

The subject of experiment [1] is 14 DIV mouse hippocampal neurons. Briefly: oTau-induced spine loss: drebrin-positive spine density in cultured hippocampal neurons. The conditions noted are these: oTau 50 nM + inhibitor 24 h vs oTau alone; NVS-PAK1-1 10 nM, NVS-PAK1-C 10 nM, AZ13705339 1 nM, G5555 5 nM. It is filed as cell-based. Here is the method:
(§1) For in vitro study, all animal procedures were conducted in accordance with the National Institutes of Health Guide for the Care and Use of Laboratory Animals using protocols approved by the institutional animal care and use committee at Stanford University. Timed pregnant C57BL/6 mice (Strain code: 027) were purchased from Charles River Laboratories and delivered on embryonic day 15 (E15), after which E16 embryos were used for primary hippocampal cultures. Primary embryonic mouse hippocampal neuron cultures were plated on poly‐D‐lysine‐coated (10 µg/mL) glass cover slips at 40,000 to 50,000 cells per well in 12‐well plates (Corning Life Sciences). Cells were seeded in plating medium DMEM/F12 supplemented with 10% fetal bovine serum and 1 × penicillin/streptomycin (PS) for 2 hours. Medium was then changed to B‐27 Plus Neuronal Culture System (Invitrogen) supplemented with PS, and 2 mM glutamine.
(§2) Immunofluorescence was performed as described previously.[24] Briefly, cultured hippocampal neurons were fixed in 4% formaldehyde for 20 minutes, permeabilized for 6 minutes in 80% ice‐cold methanol, and incubated with primary antibodies at 4°C overnight. Primary antibodies used were rabbit polyclonal MAP2 antibody for labeling dendrites (1:1000, #8707, Cell Signaling) and mouse monoclonal drebrin antibody for labeling dendritic spines (1:300; Cat#ADI‐NBA‐110, Enzo). Secondary antibodies consisted of donkey antirabbit or antimouse conjugated with either FITC or Cy3 (1:400; Jackson ImmunoResearch Laboratories, Inc.).
The cultured hippocampal neurons were imaged using an oil‐based 63x objective on a Leica Stellaris 5 confocal microscope. The cell nucleus was stained with DAPI and imaged at a wavelength of 405 nm (blue channel), the dendrites stained by MAP2 were imaged at 488 nm wavelength (green channel), and the drebrin‐stained spines were imaged at a wavelength of 561 nm (red channel). […] The number of steps for every z‐stack picture of a neuron were determined by the size of the neuron in the z‐plane, to ensure that the entirety of a neuron is captured in the picture. […]
For quantification of drebrin‐positive spines in vitro, the images were analyzed using Imaris 9.3 software. […] After manually tracing the dendrites, the spines along the dendrites were assessed using the automatic “spine detection” function in Imaris. […] The spine density (number of spines/dendrite length) was then calculated for each neuron. All image acquisition and quantification were performed in a blind manner. For in vitro quantification of dendrite degeneration, Neurolucida (MBF Biosciences) in the manual mode was used to measure the total dendritic length, numbers of dendrites, and dendritic complexity for each neuron.

Experiment [2] deals with dendritic spines, layer V of somatosensory cortex. Briefly: Golgi staining, dendritic spine density in somatosensory cortex of 5xFAD mice. It is filed as in vivo. Here is the method: Drug concentrations were prepared immediately before dosing each day. […] The right hemisphere was subjected to Golgi staining as described previously[29] to assess dendrite morphology and dendritic spine density. Briefly, frozen mice brains were rapidly immersed in a modified Golgi-Cox staining solution (developed and provided by […] Jing and Francis Lee, Cornell University) for 9 days at room temperature in the dark. The brains were then incubated in 30% sucrose in dH2O at 4°C for 72 hours, with the solution refreshed after the first 12 hours. Next, 150 μm sections were prepared using a vibratome and mounted onto slides coated with 0.3% gelatin. After a brief drying period, slides were dipped three times in 40% sucrose and air dried for 72 hours in the dark. After dH2O washes, sections were developed using a staining solution, rinsed again, dehydrated through a graded ethanol series, cleared in xylene, and cover slipped with DPX mounting medium. Brain sections stained using the Golgi-Cox method were imaged with a Zeiss brightfield microscope equipped with the Neurolucida software (MBF Biosciences). The Neurolucida software was used to acquire neuron pictures, trace neuronal dendrites, and quantify dendritic spine density. […] After a neuron was selected, the 100 × oil immersion objective was used to perform real time dendritic tracing using Neurolucida's live mode. The soma was outlined using the “cell body” option followed by manual tracing of apical and basal dendrites using the respective “dendrite tracing” options. After the tracing was finished, spines were manually marked along the dendrites. A.DAT file was saved for each neuron post completion of dendrite and spine tracing and imported into Neurolucida Explorer, which is used to perform quantitative structural analysis and dendrite length and number of spines data for each neuron is exported. The spine density is calculated by dividing number of spines/dendrite length separately for apical and basal dendrites for each neuron.

Experiment [3] has as its system 14 DIV hippocampal neurons. Briefly: oAβ-induced dendrite degeneration (MAP2 dendrite length, number, complexity) in cultured hippocampal neurons. The class given is cell-based, mouse. Here is the method: as §1, §2
The cultured hippocampal neurons were imaged using an oil‐based 63x objective on a Leica Stellaris 5 confocal microscope. The cell nucleus was stained with DAPI and imaged at a wavelength of 405 nm (blue channel), the dendrites stained by MAP2 were imaged at 488 nm wavelength (green channel), and the drebrin‐stained spines were imaged at a wavelength of 561 nm (red channel). Z‐stack images of neurons were acquired at a 1024 × 1024 resolution, a zoom factor of 1.0, and a z‐step size of 0.5 µm. The number of steps for every z‐stack picture of a neuron were determined by the size of the neuron in the z‐plane, to ensure that the entirety of a neuron is captured in the picture. The areas to be imaged were selected systematically, starting from the top‐left region to proceeding to the bottom‐right region of a coverslip. For imaging, preference was given to field of views containing isolated neurons versus clustered neurons.
For quantification of drebrin‐positive spines in vitro, the images were analyzed using Imaris 9.3 software. Each image consisted of one major neuron and the “filaments” option in Imaris was applied to manually trace along the dendrites of every neuron, by placing starting and seed points at the beginning and along the length of the dendrites, respectively. The largest dendrite diameter (i.e., Starting Point) was set at 9.00 µm threshold while the thinnest dendrite diameter (i.e., Seed Point) was set at 1.00 µm threshold. After manually tracing the dendrites, the spines along the dendrites were assessed using the automatic “spine detection” function in Imaris. The thinnest spine diameter was set at 0.80 µm threshold while the maximum spine length was set at 5.00 µm. The spine density (number of spines/dendrite length) was then calculated for each neuron. All image acquisition and quantification were performed in a blind manner. For in vitro quantification of dendrite degeneration, Neurolucida (MBF Biosciences) in the manual mode was used to measure the total dendritic length, numbers of dendrites, and dendritic complexity for each neuron.

Where [4] appears, read: young male 5xFAD, 100 mg/kg BID PO 12 weeks.

Each structure is given as a SMILES string.

For the compound `CC(C)NC(=O)N1CC[C@H](NC2=Nc3cc(F)ccc3N(CC(F)F)c3ccc(Cl)cc32)C1` [NVS‐PAK1‐1, (S)‐3‐([2‐chloro‐5‐(2,2‐difluoroethyl)‐8‐fluoro‐5H‐dibenzo[b,e][1,4]diazepin‐11‐yl]amino)‐N‐isopropylpyrrolidine‐1‐carboxamide], the “drebrin-stained spine density (spine counts per µm of dendritic length)” value in experiment [1] is “significantly higher spine counts”. Besides, the “apical dendritic spine density, somatosensory cortex” value in experiment [2] (female 5xFAD, 100 mg/kg BID PO 12 weeks from 3 to 6 months of age, P < 0.01) is on record as “prevented the loss”. Moreover, the “basal dendritic spine density, somatosensory cortex” value in experiment [2] (female 5xFAD, 100 mg/kg BID PO 12 weeks from 3 to 6 months of age, P < 0.05) was “prevented the loss”. In experiment [2] (setting [4]), the “apical spine density, somatosensory cortex” value is “no significant difference” and the “basal spine density, somatosensory cortex” value is “no significant difference”. Further, the dendritic complexity result in experiment [3] (oAβ 1 µM + 10 nM, 24 h, vs oAβ alone) is “preservation of complexity”. The “dendrite number per neuron” value in experiment [3] (oAβ 1 µM + inhibitor 24 h vs oAβ alone, NVS-PAK1-1 10 nM, AZ 1 nM, G 5 nM) was “significantly increased dendrite number per neuron”. In experiment [3] (oAβ 1 µM + inhibitor 24 h vs oAβ alone, NVS-PAK1-1 10 nM, PAK1-C 10 nM, AZ 1 nM, G 5 nM), the “total dendrite length per neuron” value is given as “preserved dendrite length”.
